Data on seven compounds can be found in patent publication EP0538001A1, “MRSA active 2-halophenyl carbapenems” (MERCK & CO. INC., priority 1991, dated 1993).

Structures are written as SMILES.

In this assay the test system is MRSA. The assay is described as follows: Activity against a strain of MRSA pathogen, relative to thienamycin. Type of assay: cell-based, methicillin resistant Staphylococcus aureus. The following applies: relative to the effectiveness of thienamycin, arbitrarily assigned an effectiveness of 1; one strain of MRSA. On the procedure: The activity of the following compounds was measured against a strain of MRSA pathogen and reported as relative to the effectiveness of thienamycin, which is arbitrarily assigned an effectiveness of 1. Regarding this measure of activity, reference is made to R. Guthikonda, et al., J. Med. Chem., 30, 871 (1987). [drawing 18]
As to `C[C@@H](O)[C@H]1C(=O)N2C(C(=O)O)=C(c3cccc(Br)c3)C[C@H]12` [R^a1 = Br, R^a2 = H, sodium (5R,6S)-2-[3-bromophenyl]-6[(1R)-1-hydroxyethyl]-carbapen-2-em-3-carboxylate], the “ANTI-INFECTIVE ACTIVITY MRSA” value amounted to 14. On to `C[C@@H](O)[C@H]1C(=O)N2C(C(=O)O)=C(c3cccc(Cl)c3)C[C@H]12` [R^a1 = Cl, R^a2 = H], for which the “ANTI-INFECTIVE ACTIVITY MRSA” value was determined as 8.1.

With `C[C@@H](O)[C@H]1C(=O)N2C(C(=O)O)=C(c3cccc(F)c3)C[C@H]12` [R^a1 = F, R^a2 = H], the “ANTI-INFECTIVE ACTIVITY MRSA” value is on record as 2.

`C[C@@H](O)[C@H]1C(=O)N2C(C(=O)O)=C(c3ccc(Br)cc3)C[C@H]12` [R^a1 = H, R^a2 = Br]: the “ANTI-INFECTIVE ACTIVITY MRSA” value stood at 1.6. On to `C[C@@H](O)[C@H]1C(=O)N2C(C(=O)O)=C(c3ccc(Cl)cc3)C[C@H]12` [R^a1 = H, R^a2 = Cl], for which the “ANTI-INFECTIVE ACTIVITY MRSA” value is 1.3. As for `C[C@@H](O)[C@H]1C(=O)N2C(C(=O)O)=C(c3ccc(F)cc3)C[C@H]12` [R^a1 = H, R^a2 = F], the “ANTI-INFECTIVE ACTIVITY MRSA” value is recorded as 1.1. As to `C[C@@H](O)[C@H]1C(=O)N2C(C(=O)O)=C(c3ccc(I)cc3)C[C@H]12` [R^a1 = H, R^a2 = I], the “ANTI-INFECTIVE ACTIVITY MRSA” value worked out at 1.8.
